Patent US12478677B2, “Tunable luminescent organic salts for enhanced imaging and photodynamic therapy” (BOARD OF TRUSTEES OF MICHIGAN STATE UNIVERSITY, priority 2017, dated 2025)
Like-named read-outs stand apart in the source and are kept apart here.

Assays:
A549 cells [1] = assay: Viability studies (trypan blue staining and cell counting) with or without IR excitation; type: cell-based, human; details: for IC50: linear regression analysis; for Toxicity in words, dark and light: with or without IR (850 nm) excitation; for Concentration at which still non-toxic: cells
Protocol: The cell lines human lung carcinoma (A549), metastatic human melanoma (WM1158) and Vemurafenib-resistant melanoma (Sk-Mel-28-Vem^R) are used. Sk-Mel-28-Vem^R is generated by culturing a parental melanoma cell lines in the presence of 2 μM Vemurafenib for 2 months. Acquired Vemurafenib resistance is defined by >1 log change in IC50 between nonresistant and resistant cell lines. Resistance is maintained through media supplementation with 2 μM Vemurafenib, which is changed every 48 hours. All cells are cultured in DMEM without pyruvate with 10% heat inactivated fetal bovine serum supplemented with glutamine and penicillin/streptomycin, and incubated in 37° C. with 5% CO2.
A549 and WM1158 cells are seeded at a density of 50,000 cells per well in 6-well tissue culture plates. After 24 hours of incubation, media is aspirated and replaced with media containing luminescent dyes at indicated concentrations. Each well is irradiated with an 850 nm LED lamp with an illumination rate of 526 mW/cm^2 for an hour in the incubator, and control cells are left in a dark incubator without irradiation. For studies with Cy7, a 740 nm LED lamp is used instead of an 850 nm, but with a similar illumination flux. Immediately after irradiation, the media is replenished with fresh dye-laced media and allowed to incubate for another 24 hours. […] Viable cell number is determined at 24 and 96 hours using trypan blue staining and a Nexcelom Cellometer Auto T4 cell counter. All assays are done with 3 biological replicates. The fold change in cell proliferation over days of treatment was calculated using the following equation.

A549 cells [2] = assay: Luminescent imaging of cells; type: cell-based, human
Protocol: Images are obtained using a Leica DMi8 microscope with a PE4000 LED light source, DFC9000GT camera, and LAS X imaging system. A549 cells are seeded in 3 cm tissue culture plates at a density of 50,000 cells per well in DMEM media containing luminescent organic salts at indicated concentrations. The cells incubate for 2 days at 37° C. with 5% CO2 until the day of imaging. For live cell imaging, the media is aspirated and replaced with fresh dye-free media to reduce background noise. For fixed cell imaging, cells are grown on 0.5 mm coverslips within 3 cm plates. The media is aspirated and the cells are washed with phosphate buffered saline (PBS) before being submerged in cold methanol and incubated at −20° C. for 15 minutes. The cells are then washed with PBS 5 times, and the coverslips are then mounted to slides using DAPI with Fluoromount-G.

CCN1C(=CC=C2CCCC(C=CC3=[N+](CC)c4ccc5ccccc5c4C3(C)C)=C2Cl)C(C)(C)c2c1ccc1ccccc21.Fc1c(F)c(F)c([B-](c2c(F)c(F)c(F)c(F)c2F)(c2c(F)c(F)c(F)c(F)c2F)c2c(F)c(F)c(F)c(F)c2F)c(F)c1F [CyTPFB]
IC50 (A549 cells [1]; A549 cells, 850 nm irradiation, read-out: IC50 850 nm): 11 µM | Phototoxicity with IR excitation, in words (A549 cells [1]; A549 cells, IR (850 nm) excitation): non phototoxic to orders of magnitude higher concentrations | IC50 (A549 cells [1]; A549 cells, dark, no irradiation, read-out: IC50 Dark): 126 µM | Fold concentration relative to CyPF6 at which still non-toxic (A549 cells [1]; A549 cells, listed as Cy^+ paired with TPFB^−): greater than 75 fold | Toxicity in words, dark and light (A549 cells [1]; A549 cells): non-toxic | Toxicity in words, dark and light (A549 cells [1]; A549 cells, listed as Cy^+ paired with TPFB): not toxic to cells in the dark and in the light | Toxicity in the dark, in words (A549 cells [1]; A549 cells, without IR excitation): deactivates the dark cellular toxicity | Concentration at which still non-toxic (A549 cells [1]): 20 µM | Concentration at which still non-toxic (A549 cells [1]; listed as Cy^+ paired with TPFB^−): 126 µM | Cellular localization versus concentration in media, in words (A549 cells [2]): localize inside cells proportionally to the initial introduced concentration in the cellular media
